In brackets after ≈: the same amount, converted by molar mass. A value given as a limit tells only on which side of the number the result lay.

Here are results for 3 molecules from patent publication US20080014278A1, “METAL-CONTAINING FORMULATIONS AND METHODS OF USE” (priority 2006, published 2008).

For one test, the system named is Enterobacter cloacae. The test is described as follows: MIC assay (microdilution). The test is classed as cell-based. The conditions noted are these: Ent. cloacae. In general terms: Dilution methods test growth across graded concentrations, often in twofold steps.
For another test, the system named is Escherichia coli. As to the kind of experiment: MIC assay (microdilution). It is filed as cell-based.
Another test has as its system Pseudomonas aeruginosa. The test is described as follows: MIC assay (microdilution). The test is classed as cell-based.
Test [1] has as its system Staphylococcus epidermidis. The test is described as follows: MIC assay (microdilution). To be noted: lactate solutions; S. epiderm (ATCC); nanocrystalline silver: range for 12 samples. The test is classed as cell-based.
Another test concerns DNBS-induced colitis. The test is described as follows: DNBS-induced colitis in rat, macroscopic observations (body weight, total IBD score). The test is classed as in vivo, Sprague-Dawley rats. The conditions noted are these: vs placebo.
The next test relates to Streptococcus pneumoniae. The test is described as follows: MIC assay (microdilution). To be noted: lactate solutions, nanocrystalline silver: range for 12 samples. It is filed as cell-based.
Another test deals with Streptococcus pyogenes. As to the kind of experiment: MIC assay (microdilution). The conditions noted are these: lactate solutions, nanocrystalline silver: range for 12 samples. It is filed as cell-based.
The next test concerns Staphylococcus aureus. As to the kind of experiment: MIC assay (microdilution). It is filed as cell-based. The conditions noted are these: lactate solutions, nanocrystalline silver: range for 12 samples.
Test [2] concerns Mycobacterium tuberculosis H37Ra. The test is classed as cell-based.

Source text for DNBS-induced colitis: Animals: Male Sprague-Dawley rats, weighing approximately 250-300 gm were purchased from Charles River Laboratories (Raleigh, N.C.). The animals were housed under standard conditions with free access to food and water. They were acclimatized for 2-3 days before commencing the experiments. The study protocol was approved by the Institutional Animal Care and Use Committees (IACUC).
Induction of ulcerative colitis: Colitis was produced according to published methods. Animals were anesthetized by intraperitoneal injection of 75 mg/kg of ketamine plus 5 mg/kg of xylazine. A single intracolonic injection of 120 mg/ml of dinitrobenzenesulfonic acid (DNBS) (Sigma Chemicals, St. Louis, Mo.) in 250 micro liter of 50% ethanol was administered through a Tom Cat catheter (Kendall Sovereign, Mansfield, Mass.) with a closed-end tip, connected to a 1 ml syringe and placed 7 cm proximal to the anus. Lubricant was applied to the tip of the catheter before injection, to protect from mucosal injury. After instillation of DNBS, 0.5 ml of air was insufflated and the catheter was removed.
Sulfasalazine (Sigma Chemicals, St Louis, Mo.), at a concentration of 120 mg/ml for intracolonic treatment and 30 mg/ml for oral treatment was used as the reference drug in all the experiments. Sulfasalazine was first dissolved in 0.1M NaOH at a concentration about 30-fold higher than the required final concentration, and then suspended in 1.5% PVA for oral dosing and 5.7% PVA for intracolonic dosing.
One group was not treated and served as no treatment group. Treatment began one day after administration of DNBS.
Macroscopic Observations: Body weight was recorded daily and the animals were examined for their physical appearance. After five days of treatment, animals were sacrificed. The colon was excised between the ileocecal junction and rectum, and opened longitudinally. After scoring of the consistency of the stool the colon was rinsed in normal saline, examined and thickness of the colonic wall and number and size of ulcers were scored. Stool consistency was graded on a scale of 0-3: 0=normal stool, well formed pellets rigid as normal; 1=loose stool, formed pellet with moisture, soft stool keeping in stool shape; 2=loose stool, stools that have abnormal form with much moisture, softer shapeless stool; 3=watery or bloody diarrhea.
Thickness of colonic wall was graded on a scale of 0-4: 0=normal, no thickness; 1=mild thickness in lower portion of the colon; 2=moderate thickness in localized area; 3=moderate thickness extending to the central portion of the colon; 4=severe thickness in the whole colon. Colonic ulceration was graded on a scale of 0-10: 0=no ulcers; 1=one small ulcer less than 2-3 mm; 2=one large ulcer more than 2-3 mm; 3=two large ulcerations more than 2-3 mm in diameter; 4=two or more sites of ulcerations extending 1 cm along the length; 5-10=when an area of ulceration extended more than 1 cm along the length of the colon, the score increases by 1 for each additional cm of involvement. The total IBD score, obtained by the sum of the scores of colonic ulcer, colon thickness and stool consistency for each animal, was calculated for each treatment group.
Statistical Analysis: The results are expressed as the mean ±SE. The statistical significance in the mean total IBD score, histopathological inflammation score, and the immunohistochemical staining of cytokines or MMP-9 was determined using Tukey-Kramer's multiple comparison tests following one-way analysis of variance (ANOVA). The data were calculated with the aid of Instat Graph Pad Software. Differences with a P value less than 0.05 were considered significant.
Methods: Colitis was induced in rats using DNBS as described in Example 25. Animals were treated intracolonically (250 μl of the test reagents) once a day for five days. […] Methods: Colitis was induced in rats using DNBS as described in Example 25. Animals were treated intracolonically (250 μl of the test reagents) once a day for five days.

Consider `OO` [Sample H2O2, hydrogen peroxide], for which the MIC in the test with Enterobacter cloacae (SOD/catalase +) was more than 500 µg/mL; in the test on Enterobacter cloacae (SOD/catalase −), 63 µg/mL (≈ 1850 µM); with Escherichia coli (E. coli, SOD/catalase +) it was more than 500 µg/mL; with Escherichia coli (E. coli, SOD/catalase −) it was 31 µg/mL (≈ 911 µM).

For the molecule Benzalkonium chloride [BAC], the MIC stood at 63 µg/mL against Pseudomonas aeruginosa (P. aeruginosa isolate NP220 (BAC-sensitive)), 4000 µg/mL with Pseudomonas aeruginosa (P. aeruginosa isolate NP221 (BAC-resistant)) and 63 µg/mL against Pseudomonas aeruginosa (P. aeruginosa isolate NP222 (BAC-sensitive)).

Turning to silver oxide [Ag2O], the MIC in [1] turned out to be 2 µg/mL; in the test on Pseudomonas aeruginosa (lactate solutions, P. aerug (ATCC), nanocrystalline silver: range for 12 samples), 0.8 µg/mL; in the test with Pseudomonas aeruginosa (lactate solutions, P. aerug. (clin.), nanocrystalline silver: range for 12 samples) it was 2 µg/mL; with Streptococcus pneumoniae (S. pneumo (clin 314)), 3 µg/mL; with Streptococcus pneumoniae (S. pneumo (clin 315)), 2 µg/mL; against Streptococcus pyogenes (S. pyog (clin. 303)) it was 2 µg/mL. Besides, the MIC was found to be 3 µg/mL against Streptococcus pyogenes (S. pyog (clin. 304)); 3 µg/mL with Staphylococcus aureus (S. aureus (ATCC)); 6 µg/mL against Staphylococcus aureus (S. aureus (clin.)); 2.5 μg/ml silver in test [2]; 0.8 µg/mL in the test with Escherichia coli (lactate solutions, E. coli (ATCC), nanocrystalline silver: range for 12 samples). The “total IBD score” value in the test with DNBS-induced colitis (Example 27, 0.25% homogenized, intracolonic, five days) was “unable to show significant reduction of total IBD score”; with DNBS-induced colitis (Example 27, 0.5% homogenized, intracolonic, five days) it was “unable to show significant reduction of total IBD score”; in the test with DNBS-induced colitis (Example 27, 0.5% sonicated nanodispersion, 250 μl intracolonically once a day for five days), “significantly reduced the total IBD score”; in the test on DNBS-induced colitis (Example 28, 0.05% nanodispersion, intracolonic, five days), “but not 0.15% and 0.05%”; in the test on DNBS-induced colitis (Example 28, 0.15% nanodispersion, intracolonic, five days), “but not 0.15% and 0.05%”; in the test on DNBS-induced colitis (Example 28, 0.5% sonicated nanodispersion, 250 μl intracolonically once a day for five days) it was “significantly reduced the total IBD score”. The “total IBD score” value in the test on DNBS-induced colitis (Example 28, 1.5% nanodispersion, intracolonic, five days) is “significantly reduced the total IBD score”.
